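A five-concentration, 48-hour dose response in 96-well plates underlies each endpoint, interpolated linearly between surrounding concentrations. GI50: concentration for 50% inhibition of growth. TGI: concentration producing complete growth inhibition.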
Experiments:
Assay in all cases: inhibition of tumour cell growth, NCI panel, 48 h
[1] = system: OVCAR-5 ovarian
[2] = system: COLO 205 colon
[3] = system: SNB-75 CNS
[4] = system: SN12C renal
[5] = system: SF-539 CNS
[6] = system: A498 renal
[7] = system: CAKI-1 renal
[8] = system: SR leukemia

| Structure (SMILES) | TGI [1] | TGI [2] | TGI [3] | TGI [4] | TGI [5] | TGI [6] | TGI [7] | TGI [8] | GI50 [1] | GI50 [2] | GI50 [3] | GI50 [7] | GI50 [4] | GI50 [6] |
| --- | --- | --- | --- | --- | --- | --- | --- | --- | --- | --- | --- | --- | --- | --- |
| COc1cccc(-c2cc(=O)c3cc(C)c(C)c(C(=O)O)c3o2)c1 | > 100 µM | > 100 µM | 92.7 µM | > 100 µM | > 100 µM | > 100 µM |  |  |  |  |  |  |  |  |
| CCOC(=O)C1Nc2ccc([N+](=O)[O-])cc2[C@H]2OCC[C@@H]12 (some centres undefined) | > 100 µM | > 100 µM | > 100 µM | > 100 µM | > 100 µM | > 100 µM | > 100 µM |  |  |  |  |  |  |  |
| CN1CCN2c3ccccc3CC(C#N)(C#N)C2C1 (centres undefined) | > 100 µM | > 100 µM | > 100 µM | > 100 µM | > 100 µM | > 100 µM | > 100 µM |  |  |  |  |  |  |  |
| CC(=O)CC(=O)ON(C)C(C)=O | > 100 µM | > 100 µM | > 100 µM | > 100 µM | > 100 µM |  | > 100 µM | > 100 µM |  |  |  |  |  |  |
| CC(C)(C)c1cc(O)c2c(c1O)C(=O)CCC2 |  | > 100 µM | > 100 µM | > 100 µM | > 100 µM | > 100 µM | 82.3 µM |  |  |  |  |  |  |  |
| CCOc1ccc(NC(=O)/C(Cc2nc3ccccc3[nH]c2=O)=N\O)cc1 | > 100 µM | > 100 µM | > 100 µM |  | > 100 µM | > 100 µM | > 100 µM |  |  |  |  |  |  |  |
| C[C@]12CC[C@H](OC(=O)Cc3ccc(N(CCCl)CCCl)cc3)CC1CC[C@@H]1C2CC[C@]2(C)NC(=O)CCC12 (some centres undefined) |  | 18.4 µM | 27.4 µM | 18.6 µM | 12.5 µM | 43.5 µM | 15.3 µM |  |  |  |  |  |  |  |
| Cc1cc(Cl)ccc1NC(=O)C1C(=O)C(=O)N(c2ccc(Cl)cc2C)C1=O (centres undefined) | > 100 µM | > 100 µM | > 100 µM | > 100 µM | > 100 µM | > 100 µM | > 100 µM |  |  |  |  |  |  |  |
| COC(=O)c1ccc(CS(=O)(=O)c2ccccc2)cc1 | > 100 µM | > 100 µM | > 100 µM | > 100 µM | > 100 µM |  | > 100 µM | > 100 µM |  |  |  |  |  |  |
| O=C1C[C@@H]2[C@@H](C=CC23CC3)N1O | > 100 µM | > 100 µM | > 100 µM | > 100 µM | > 100 µM | > 100 µM | > 100 µM |  |  |  |  |  |  |  |
| Cc1ccc2oc(=O)cc(CC(=O)O)c2c1 | > 100 µM | > 100 µM | > 100 µM | > 100 µM | > 100 µM | > 100 µM | > 100 µM |  |  |  |  |  |  |  |
| C/C(=N\NC(=O)C[n+]1ccccc1)c1sc(-c2nc(C)c(/C(C)=N/NC(=O)C[n+]3ccccc3)s2)nc1C | > 100 µM | > 100 µM | > 100 µM | > 100 µM | > 100 µM | > 100 µM | > 100 µM |  |  |  |  |  |  |  |
| CC(=O)O[C@H]1CC[C@@]2(C)C(=CC[C@@H]3C2CC[C@]2(C)C(=O)NC(=O)CC32)C1 (some centres undefined) | > 100 µM | > 100 µM | > 100 µM | > 100 µM | > 100 µM | > 100 µM | > 100 µM |  |  |  |  |  |  |  |
| O=C1C2c3[nH]c4ccccc4c3C3CCC(c4ccccc4)CC3C2C(=O)N1c1ccccc1 (centres undefined) | > 100 µM | > 100 µM | 55.9 µM | > 100 µM | > 100 µM |  |  | > 100 µM |  |  |  |  |  |  |
| CO[C@H](C(=O)O[C@H]1C(=O)N2CCC3CCC1C32C)c1ccccc1 (some centres undefined) | > 100 µM | > 100 µM | > 100 µM | > 100 µM | > 100 µM |  | > 100 µM | > 100 µM |  |  |  |  |  |  |
| Clc1cc(Cl)cc(C2SCc3nc4ccccc4n32)c1 (centres undefined) | 71.4 µM | 33.9 µM | > 100 µM | 29.9 µM | 23.9 µM |  | 44.2 µM | > 100 µM |  |  |  |  |  |  |
| [O-]c1ccccc1[C-]=Nc1ccccc1O.[O-]c1ccccc1[C-]=Nc1ccccc1O.[O]=[U]=[O] | > 100 µM | 51.6 µM | 64.5 µM | 35.4 µM |  | 46.6 µM | 37.3 µM |  | 21 µM | 19 µM | 25.1 µM | 12.5 µM | 10 µM | 22.8 µM |
| CN1C(=O)C(C)(C)NS1(=O)=O | > 100 µM | > 100 µM | > 100 µM | > 100 µM | > 100 µM | > 100 µM | > 100 µM |  |  |  |  |  |  |  |
| CCOc1cccc2sc(N)nc12 | > 100 µM | > 100 µM | > 100 µM | > 100 µM | > 100 µM | > 100 µM | > 100 µM |  |  |  |  |  |  |  |
| Cc1cc(N(CCC#N)CCC#N)ccc1/C=C(\NC(=O)/C=C/c1ccccc1)NC(=O)Nc1ccccc1C | > 100 µM | > 100 µM |  | > 100 µM | > 100 µM | > 100 µM | > 100 µM |  |  |  |  |  |  |  |
| C=CCNC(=O)ON1C(=O)CCC1=O | > 100 µM | > 100 µM | > 100 µM | > 100 µM | > 100 µM | > 100 µM |  |  |  |  |  |  |  |  |
| COC(=O)CCC(=O)Nc1cccc(C(F)(F)F)c1 | > 100 µM | > 100 µM | > 100 µM | > 100 µM | > 100 µM | > 100 µM | > 100 µM |  |  |  |  |  |  |  |
| Clc1cc2nc[nH]c2cc1Cl | > 100 µM | > 100 µM | 83.9 µM | > 100 µM | > 100 µM | > 100 µM | > 100 µM |  |  |  |  |  |  |  |

Source: PubChem BioAssay (NCI)
